# Results published in ChEMBL document CHEMBL3885881, “DrugMatrix”.
# Species on record: Rattus norvegicus
# Assay: DrugMatrix - Regimen: Daily Repeat
# Type: toxicity, organism-based, Sprague-Dawley
# Design: regimen Daily Repeat, gender Male, age 6-8 weeks
# Conditions: in vivo, po, route oral GAVAGE, […]; for ABSOLUTE BASOPHIL / BASOPHIL / NUCLEATED RED BLOOD CELLS / ABSOLUTE EOSINOPHIL / EOSINOPHIL / HEMOGLOBIN / PLATELET COUNT / ABSOLUTE LYMPHOCYTE / ABSOLUTE MONOCYTE / ABSOLUTE SEGMENTED NEUTROPHIL / ERYTHROCYTE COUNT / HEMATOCRIT / LYMPHOCYTE / MEAN CORPUSCULAR HEMOGLOBIN CONCENTRATION / MEAN CORPUSCULAR VOLUME: tissue Blood; for ASPARTATE AMINOTRANSFERASE / ALANINE AMINOTRANSFERASE / ALBUMIN / ALKALINE PHOSPHATASE / BLOOD UREA NITROGEN / CARBON DIOXIDE / CREATINE PHOSPHOKINASE / CREATININE / LACTATE DEHYDROGENASE / TOTAL BILIRUBIN / TOTAL PROTEIN / URIC ACID: tissue Plasma
# [1] = 0 mg/kg, 72 h, dose level Control, time 3 day
# [2] = 0 mg/kg, 120 h, dose level Control, time 5 day
# [3] = 0 mg/kg, dose level Control, time 7 day
# [4] = 43 mg/kg, 72 h, dose level Low, time 3 day
# [5] = 43 mg/kg, 120 h, dose level Low, time 5 day
# [6] = 100 mg/kg, 72 h, dose level M1, time 3 day
# [7] = 100 mg/kg, dose level M1, time 7 day
# [8] = 215 mg/kg, 72 h, dose level M2, time 3 day
smiles,measurement,setting,value
CC(C)OC(=O)C(C)(C)Oc1ccc(C(=O)c2ccc(Cl)cc2)cc1 [FENOFIBRATE],ABSOLUTE BASOPHIL,[1],0 CELLS/uL
same,BASOPHIL,[1],0%
same,NUCLEATED RED BLOOD CELLS,[1],0 /100WBC
same,ABSOLUTE BASOPHIL,[2],0 CELLS/uL
same,ABSOLUTE EOSINOPHIL,[2],0 CELLS/uL
same,BASOPHIL,[2],0%
same,EOSINOPHIL,[2],0%
same,HEMOGLOBIN,[2],13.5 G/DL
same,PLATELET COUNT,[2],807.17 x10E3/uL
same,ASPARTATE AMINOTRANSFERASE,[2],83 u/L
same,ABSOLUTE BASOPHIL,[3],0 CELLS/uL
same,ABSOLUTE EOSINOPHIL,[3],19 CELLS/uL
same,ABSOLUTE LYMPHOCYTE,[3],7803.5 CELLS/uL
same,ABSOLUTE MONOCYTE,[3],117.83 CELLS/uL
same,ABSOLUTE SEGMENTED NEUTROPHIL,[3],1093 CELLS/uL
same,BASOPHIL,[3],0%
same,EOSINOPHIL,[3],0.17%
same,ERYTHROCYTE COUNT,[3],5.84 x10E6/uL
same,HEMATOCRIT,[3],35.75%
same,HEMOGLOBIN,[3],13.87 G/DL
same,LYMPHOCYTE,[3],87.17%
same,MEAN CORPUSCULAR HEMOGLOBIN CONCENTRATION,[3],38.8 G/DL
same,MEAN CORPUSCULAR VOLUME,[3],61.25 fL
same,NUCLEATED RED BLOOD CELLS,[3],0 /100WBC
same,PLATELET COUNT,[3],1098.67 x10E3/uL
same,ALANINE AMINOTRANSFERASE,[3],66 u/L
same,ALBUMIN,[3],4.3 G/DL
same,ALKALINE PHOSPHATASE,[3],291.83 u/L
same,ASPARTATE AMINOTRANSFERASE,[3],80.5 u/L
same,BLOOD UREA NITROGEN,[3],15.67 mg/dL
same,CARBON DIOXIDE,[3],30 mmol/L
same,CREATINE PHOSPHOKINASE,[3],363.33 u/L
same,CREATININE,[3],0.25 mg/dL
same,LACTATE DEHYDROGENASE,[3],219.67 u/L
same,TOTAL BILIRUBIN,[3],0.12 mg/dL
same,TOTAL PROTEIN,[3],6.33 G/DL
same,URIC ACID,[3],0.75 mg/dL
same,ABSOLUTE BASOPHIL,[4],0 CELLS/uL
same,ABSOLUTE EOSINOPHIL,[4],76 CELLS/uL
same,ABSOLUTE LYMPHOCYTE,[4],10300 CELLS/uL
same,ABSOLUTE MONOCYTE,[4],0 CELLS/uL
same,ABSOLUTE SEGMENTED NEUTROPHIL,[4],324 CELLS/uL
same,BASOPHIL,[4],0%
same,EOSINOPHIL,[4],0.67%
same,ERYTHROCYTE COUNT,[4],5.15 x10E6/uL
same,HEMATOCRIT,[4],32.83%
same,HEMOGLOBIN,[4],12.83 G/DL
same,LYMPHOCYTE,[4],96.33%
same,MEAN CORPUSCULAR HEMOGLOBIN CONCENTRATION,[4],39.07 G/DL
same,MEAN CORPUSCULAR VOLUME,[4],63.77 fL
same,NUCLEATED RED BLOOD CELLS,[4],0.33 /100WBC
same,PLATELET COUNT,[4],922 x10E3/uL
same,ALANINE AMINOTRANSFERASE,[4],71 u/L
same,ALBUMIN,[4],3.7 G/DL
same,ALKALINE PHOSPHATASE,[4],389.33 u/L
same,ASPARTATE AMINOTRANSFERASE,[4],87.67 u/L
same,BLOOD UREA NITROGEN,[4],7 mg/dL
same,CARBON DIOXIDE,[4],22 mmol/L
same,CREATINE PHOSPHOKINASE,[4],129.33 u/L
same,CREATININE,[4],0.13 mg/dL
same,LACTATE DEHYDROGENASE,[4],74.33 u/L
same,TOTAL BILIRUBIN,[4],0.1 mg/dL
same,TOTAL PROTEIN,[4],4.67 G/DL
same,URIC ACID,[4],0.63 mg/dL
same,ABSOLUTE BASOPHIL,[5],0 CELLS/uL
same,ABSOLUTE EOSINOPHIL,[5],51.33 CELLS/uL
same,ABSOLUTE LYMPHOCYTE,[5],9774.33 CELLS/uL
same,ABSOLUTE MONOCYTE,[5],51.33 CELLS/uL
same,ABSOLUTE SEGMENTED NEUTROPHIL,[5],823 CELLS/uL
same,BASOPHIL,[5],0%
same,EOSINOPHIL,[5],0.67%
same,ERYTHROCYTE COUNT,[5],4.75 x10E6/uL
same,HEMATOCRIT,[5],30.63%
same,HEMOGLOBIN,[5],12.1 G/DL
same,LYMPHOCYTE,[5],91.33%
same,MEAN CORPUSCULAR HEMOGLOBIN CONCENTRATION,[5],39.5 G/DL
same,MEAN CORPUSCULAR VOLUME,[5],64.5 fL
same,NUCLEATED RED BLOOD CELLS,[5],0 /100WBC
same,PLATELET COUNT,[5],848.67 x10E3/uL
same,ALANINE AMINOTRANSFERASE,[5],54.67 u/L
same,ALBUMIN,[5],4.57 G/DL
same,ALKALINE PHOSPHATASE,[5],365.33 u/L
same,ASPARTATE AMINOTRANSFERASE,[5],98.33 u/L
same,BLOOD UREA NITROGEN,[5],12.33 mg/dL
same,CARBON DIOXIDE,[5],27 mmol/L
same,CREATINE PHOSPHOKINASE,[5],885.67 u/L
same,CREATININE,[5],0.27 mg/dL
same,LACTATE DEHYDROGENASE,[5],151.33 u/L
same,TOTAL BILIRUBIN,[5],0.13 mg/dL
same,TOTAL PROTEIN,[5],5.73 G/DL
same,URIC ACID,[5],0.97 mg/dL
same,ABSOLUTE BASOPHIL,[6],0 CELLS/uL
same,ABSOLUTE EOSINOPHIL,[6],17.33 CELLS/uL
same,ABSOLUTE LYMPHOCYTE,[6],10964.5 CELLS/uL
same,ABSOLUTE MONOCYTE,[6],176.17 CELLS/uL
same,ABSOLUTE SEGMENTED NEUTROPHIL,[6],858.67 CELLS/uL
same,BASOPHIL,[6],0%
same,EOSINOPHIL,[6],0.17%
same,ERYTHROCYTE COUNT,[6],5.66 x10E6/uL
same,HEMATOCRIT,[6],35.15%
same,HEMOGLOBIN,[6],14.03 G/DL
same,LYMPHOCYTE,[6],91.17%
same,MEAN CORPUSCULAR HEMOGLOBIN CONCENTRATION,[6],39.97 G/DL
same,MEAN CORPUSCULAR VOLUME,[6],62.08 fL
same,NUCLEATED RED BLOOD CELLS,[6],0 /100WBC
same,ALANINE AMINOTRANSFERASE,[6],54.33 u/L
same,ALBUMIN,[6],4.53 G/DL
same,ALKALINE PHOSPHATASE,[6],352 u/L
same,ASPARTATE AMINOTRANSFERASE,[6],82 u/L
same,CARBON DIOXIDE,[6],33 mmol/L
same,CREATINE PHOSPHOKINASE,[6],171.5 u/L
same,CREATININE,[6],0.19 mg/dL
same,LACTATE DEHYDROGENASE,[6],147.33 u/L
same,TOTAL BILIRUBIN,[6],0.17 mg/dL
same,TOTAL PROTEIN,[6],5.83 G/DL
same,ABSOLUTE BASOPHIL,[7],0 CELLS/uL
same,ABSOLUTE EOSINOPHIL,[7],14.83 CELLS/uL
same,ABSOLUTE LYMPHOCYTE,[7],8599.83 CELLS/uL
same,ABSOLUTE SEGMENTED NEUTROPHIL,[7],668 CELLS/uL
same,BASOPHIL,[7],0%
same,EOSINOPHIL,[7],0.17%
same,ERYTHROCYTE COUNT,[7],5.49 x10E6/uL
same,HEMATOCRIT,[7],33.87%
same,HEMOGLOBIN,[7],13.08 G/DL
same,LYMPHOCYTE,[7],92.33%
same,MEAN CORPUSCULAR HEMOGLOBIN CONCENTRATION,[7],38.63 G/DL
same,MEAN CORPUSCULAR VOLUME,[7],61.8 fL
same,NUCLEATED RED BLOOD CELLS,[7],0 /100WBC
same,PLATELET COUNT,[7],1292.17 x10E3/uL
same,ALANINE AMINOTRANSFERASE,[7],74.17 u/L
same,ALBUMIN,[7],5.1 G/DL
same,ALKALINE PHOSPHATASE,[7],331.67 u/L
same,ASPARTATE AMINOTRANSFERASE,[7],84.67 u/L
same,BLOOD UREA NITROGEN,[7],15.33 mg/dL
same,CARBON DIOXIDE,[7],31.67 mmol/L
same,CREATINE PHOSPHOKINASE,[7],252 u/L
same,CREATININE,[7],0.24 mg/dL
same,LACTATE DEHYDROGENASE,[7],121.33 u/L
same,TOTAL BILIRUBIN,[7],0.1 mg/dL
same,TOTAL PROTEIN,[7],6.25 G/DL
same,ABSOLUTE BASOPHIL,[8],0 CELLS/uL
same,ABSOLUTE EOSINOPHIL,[8],60.33 CELLS/uL
same,ABSOLUTE LYMPHOCYTE,[8],18749.67 CELLS/uL
same,ABSOLUTE MONOCYTE,[8],284.33 CELLS/uL
same,ABSOLUTE SEGMENTED NEUTROPHIL,[8],1839 CELLS/uL
same,BASOPHIL,[8],0%
same,EOSINOPHIL,[8],0.33%
same,ERYTHROCYTE COUNT,[8],5.51 x10E6/uL
same,HEMATOCRIT,[8],33.9%
